Results from PMC4102434 (Biochemical pharmacology, 2012).

How the values were obtained:
Type in all cases: biochemical
ces1d [1] = target: T1, ces1d (Rattus norvegicus, UniProt P16303); experiment: p-nitrophenylacetate hydrolysis, absorbance at […] nm; conditions: read-out: % inhibition at 10 nM
T1 sequence (P16303 19-565): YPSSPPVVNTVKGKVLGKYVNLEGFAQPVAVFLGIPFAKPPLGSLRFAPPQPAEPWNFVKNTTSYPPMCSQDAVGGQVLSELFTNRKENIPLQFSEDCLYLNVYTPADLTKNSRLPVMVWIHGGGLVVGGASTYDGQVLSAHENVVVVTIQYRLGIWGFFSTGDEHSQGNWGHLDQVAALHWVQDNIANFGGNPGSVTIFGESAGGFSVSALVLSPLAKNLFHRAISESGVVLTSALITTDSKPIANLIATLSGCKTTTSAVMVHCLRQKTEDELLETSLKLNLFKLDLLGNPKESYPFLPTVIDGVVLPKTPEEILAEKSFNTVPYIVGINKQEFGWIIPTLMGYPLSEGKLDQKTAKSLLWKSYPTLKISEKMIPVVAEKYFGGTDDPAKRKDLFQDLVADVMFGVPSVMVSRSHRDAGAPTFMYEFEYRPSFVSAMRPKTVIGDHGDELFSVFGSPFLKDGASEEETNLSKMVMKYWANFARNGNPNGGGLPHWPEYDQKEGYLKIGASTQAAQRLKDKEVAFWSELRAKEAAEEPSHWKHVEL

ces2e [2] = target: T2, ces2e (Mus musculus, UniProt Q8BK48); experiment: as above; conditions: read-out: % inhibition at 1 nM
T2 sequence (Q8BK48 27-559): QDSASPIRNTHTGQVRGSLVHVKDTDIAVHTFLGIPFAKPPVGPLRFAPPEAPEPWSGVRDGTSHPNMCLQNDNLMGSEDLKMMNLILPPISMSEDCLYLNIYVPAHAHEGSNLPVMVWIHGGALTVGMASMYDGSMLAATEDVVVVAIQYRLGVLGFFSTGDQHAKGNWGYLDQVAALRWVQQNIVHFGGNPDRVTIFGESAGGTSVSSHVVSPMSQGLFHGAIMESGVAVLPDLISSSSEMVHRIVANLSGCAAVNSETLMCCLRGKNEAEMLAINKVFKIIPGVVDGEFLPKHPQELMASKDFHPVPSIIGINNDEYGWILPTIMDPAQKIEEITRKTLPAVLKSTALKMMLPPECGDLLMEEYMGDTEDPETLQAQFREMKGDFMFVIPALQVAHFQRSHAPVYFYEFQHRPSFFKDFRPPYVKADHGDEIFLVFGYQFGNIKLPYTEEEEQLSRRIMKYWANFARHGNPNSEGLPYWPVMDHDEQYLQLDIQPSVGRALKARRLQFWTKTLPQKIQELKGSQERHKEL

ces1e [3] = target: T3, ces1e (Rattus norvegicus, UniProt Q63108); experiment: as above; conditions: read-out: % inhibition at 10 nM
T3 sequence (Q63108 19-561): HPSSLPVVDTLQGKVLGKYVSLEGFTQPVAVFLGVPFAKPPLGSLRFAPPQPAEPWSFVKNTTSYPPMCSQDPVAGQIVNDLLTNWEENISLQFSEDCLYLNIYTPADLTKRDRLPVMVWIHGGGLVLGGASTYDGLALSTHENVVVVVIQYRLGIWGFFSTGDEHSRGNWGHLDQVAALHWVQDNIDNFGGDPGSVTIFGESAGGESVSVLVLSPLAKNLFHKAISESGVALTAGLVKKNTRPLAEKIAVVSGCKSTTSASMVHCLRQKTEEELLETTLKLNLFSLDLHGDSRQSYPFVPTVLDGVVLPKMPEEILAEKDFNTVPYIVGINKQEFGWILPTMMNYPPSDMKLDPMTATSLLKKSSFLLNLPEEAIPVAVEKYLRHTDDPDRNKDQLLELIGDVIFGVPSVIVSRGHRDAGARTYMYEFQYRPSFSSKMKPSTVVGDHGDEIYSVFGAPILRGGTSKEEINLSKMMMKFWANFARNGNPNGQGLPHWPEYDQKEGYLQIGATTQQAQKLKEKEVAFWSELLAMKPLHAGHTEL

ces1d [4] = target: T4, ces1d (Mus musculus, UniProt Q8VCT4); experiment: as above; conditions: read-out: % inhibition at 1 nM
T4 sequence (Q8VCT4 19-565): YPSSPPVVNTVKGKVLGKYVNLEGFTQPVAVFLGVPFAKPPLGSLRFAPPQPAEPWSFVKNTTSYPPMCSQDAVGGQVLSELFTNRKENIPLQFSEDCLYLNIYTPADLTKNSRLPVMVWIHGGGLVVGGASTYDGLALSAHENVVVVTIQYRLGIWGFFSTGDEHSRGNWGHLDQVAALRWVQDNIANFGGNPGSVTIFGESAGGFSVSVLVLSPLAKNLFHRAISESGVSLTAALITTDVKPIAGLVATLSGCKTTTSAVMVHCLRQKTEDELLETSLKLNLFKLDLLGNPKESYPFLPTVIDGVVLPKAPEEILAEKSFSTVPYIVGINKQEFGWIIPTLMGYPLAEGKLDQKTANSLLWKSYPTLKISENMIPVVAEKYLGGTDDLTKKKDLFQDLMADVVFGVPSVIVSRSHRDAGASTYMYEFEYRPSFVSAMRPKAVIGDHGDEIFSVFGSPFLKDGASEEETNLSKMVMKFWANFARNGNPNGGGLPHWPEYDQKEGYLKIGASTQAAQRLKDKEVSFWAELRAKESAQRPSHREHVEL

CES1 [5] = target: T5, CES1 (Homo sapiens, UniProt P23141); experiment: as above; conditions: read-out: % inhibition at 100 nM
T5 sequence (P23141 18-567): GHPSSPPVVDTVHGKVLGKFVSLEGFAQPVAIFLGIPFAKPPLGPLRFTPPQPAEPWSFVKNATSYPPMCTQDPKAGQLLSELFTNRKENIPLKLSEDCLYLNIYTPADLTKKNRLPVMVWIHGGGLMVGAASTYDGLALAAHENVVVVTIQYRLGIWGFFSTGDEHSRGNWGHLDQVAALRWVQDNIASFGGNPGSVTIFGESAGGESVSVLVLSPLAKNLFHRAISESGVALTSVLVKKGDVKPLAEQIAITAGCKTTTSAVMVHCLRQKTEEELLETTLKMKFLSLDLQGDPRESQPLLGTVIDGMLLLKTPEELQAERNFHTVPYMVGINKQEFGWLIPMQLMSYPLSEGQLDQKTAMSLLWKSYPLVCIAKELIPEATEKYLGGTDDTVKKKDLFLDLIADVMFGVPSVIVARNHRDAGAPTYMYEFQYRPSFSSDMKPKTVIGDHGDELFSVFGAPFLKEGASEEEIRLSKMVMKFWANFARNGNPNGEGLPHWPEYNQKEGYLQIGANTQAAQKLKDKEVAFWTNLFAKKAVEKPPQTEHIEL

ces2c [6] = target: T6, ces2c (Mus musculus, UniProt Q91WG0); experiment: as above; conditions: read-out: % inhibition at 1 nM
T6 sequence (Q91WG0 27-561): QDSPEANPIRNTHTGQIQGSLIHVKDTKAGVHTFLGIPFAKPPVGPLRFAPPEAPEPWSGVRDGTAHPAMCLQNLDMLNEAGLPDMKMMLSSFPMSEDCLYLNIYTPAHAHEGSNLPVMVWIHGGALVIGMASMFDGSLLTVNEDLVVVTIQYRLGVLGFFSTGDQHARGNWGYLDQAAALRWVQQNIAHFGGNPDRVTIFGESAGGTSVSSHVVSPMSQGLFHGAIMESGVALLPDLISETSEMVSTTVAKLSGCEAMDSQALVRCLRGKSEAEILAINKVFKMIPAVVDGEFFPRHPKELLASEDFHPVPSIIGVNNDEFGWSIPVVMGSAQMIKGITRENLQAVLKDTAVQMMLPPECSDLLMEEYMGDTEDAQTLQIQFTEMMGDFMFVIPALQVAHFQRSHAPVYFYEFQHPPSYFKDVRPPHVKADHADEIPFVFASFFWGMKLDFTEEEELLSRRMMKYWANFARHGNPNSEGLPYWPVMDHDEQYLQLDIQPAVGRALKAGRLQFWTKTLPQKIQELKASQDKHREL

ces2c [7] = target: T6, ces2c; experiment: hydrolysis, absorbance at […] nm; conditions: 293T lysate, potassium phosphate pH 7.4
ces1d [8] = target: T4, ces1d; experiment: hydrolysis, absorbance at […] nm; conditions: 293T lysate, potassium phosphate pH 7.4
ces1e [9] = target: T3, ces1e; experiment: hydrolysis, absorbance at […] nm; conditions: 293T lysate, potassium phosphate pH 7.4
ces1d [10] = target: T1, ces1d; experiment: hydrolysis, absorbance at […] nm; conditions: 293T lysate, potassium phosphate pH 7.4
ces2e [11] = target: T2, ces2e; experiment: hydrolysis, absorbance at […] nm; conditions: 293T lysate, potassium phosphate pH 7.4
CES2 = target: T7, CES2 (Homo sapiens, UniProt O00748); experiment: hydrolysis, absorbance at […] nm; conditions: 293T lysate, potassium phosphate pH 7.4
T7 sequence (O00748 27-559): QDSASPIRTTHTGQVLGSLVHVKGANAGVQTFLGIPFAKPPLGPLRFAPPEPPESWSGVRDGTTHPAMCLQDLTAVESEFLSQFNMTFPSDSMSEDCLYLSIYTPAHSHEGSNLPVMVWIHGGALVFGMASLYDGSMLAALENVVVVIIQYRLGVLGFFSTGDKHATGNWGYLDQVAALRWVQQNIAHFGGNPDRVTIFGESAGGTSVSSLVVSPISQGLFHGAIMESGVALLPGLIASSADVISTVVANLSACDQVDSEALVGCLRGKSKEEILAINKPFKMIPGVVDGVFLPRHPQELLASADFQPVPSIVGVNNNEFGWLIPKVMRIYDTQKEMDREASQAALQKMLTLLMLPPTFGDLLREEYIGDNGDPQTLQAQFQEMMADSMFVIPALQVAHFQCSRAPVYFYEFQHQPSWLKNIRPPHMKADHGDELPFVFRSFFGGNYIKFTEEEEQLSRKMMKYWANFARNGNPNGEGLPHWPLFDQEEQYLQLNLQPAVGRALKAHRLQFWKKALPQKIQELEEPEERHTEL

CES1 [12] = target: T5, CES1; experiment: hydrolysis, absorbance at […] nm; conditions: 293T lysate, potassium phosphate pH 7.4

Structure (SMILES) | inhibition at 0.01 µM (ces1d [1]) | inhibition at 0.001 µM (ces2e [2]) | inhibition at 0.01 µM (ces1e [3]) | inhibition at 0.001 µM (ces1d [4]) | inhibition at 0.1 µM (CES1 [5]) | inhibition at 0.001 µM (ces2c [6]) | hydrolysis, absorbance at 400 nm (ces2c [7]) | hydrolysis, absorbance at 400 nm (ces1d [8]) | hydrolysis, absorbance at 400 nm (ces1e [9]) | hydrolysis, absorbance at 400 nm (ces1d [10]) | hydrolysis, absorbance at 400 nm (ces2e [11]) | hydrolysis, absorbance at 400 nm (CES2) | hydrolysis, absorbance at 400 nm (CES1 [12])
CCCCCCCCCCC[C@@H](C[C@@H]1OC(=O)[C@H]1CCCCCC)OC(=O)[C@H](CC(C)C)NC=O [orlistat] | 20% | 55% | 20% | 12% | ~30% | 90% | – | – | – | – | – | – | –
CC(=O)Oc1ccc([N+](=O)[O-])cc1 [p-nitrophenylacetate] | – | – | – | – | – | – | Inhibition of p-nitrophenylacetate hydrolysis of recombinant carboxylesterases from human (A), mouse (B) or rat | Inhibition of p-nitrophenylacetate hydrolysis of recombinant carboxylesterases from human (A), mouse (B) or rat | Inhibition of p-nitrophenylacetate hydrolysis of recombinant carboxylesterases from human (A), mouse (B) or rat | Inhibition of p-nitrophenylacetate hydrolysis of recombinant carboxylesterases from human (A), mouse (B) or rat | Inhibition of p-nitrophenylacetate hydrolysis of recombinant carboxylesterases from human (A), mouse (B) or rat | Inhibition of p-nitrophenylacetate hydrolysis of recombinant carboxylesterases from human (A), mouse (B) or rat | Inhibition of p-nitrophenylacetate hydrolysis of recombinant carboxylesterases from human (A), mouse (B) or rat
